Test [1] deals with T1, Recombinant STAT3 protein (STAT3(G127-I722)) (Homo sapiens, UniProt P40763).
T1 construct: Recombinant STAT3 protein (STAT3(G127-I722))
The test can be described thus: STAT3 Fluorescence Polarization (FP) Assay. The test is classed as binding. The following applies: STAT3(G127-I722) 25 nM, probe 5-FAM-GpYLPQTV-NH2 2 nM, 45-minute incubation. A digest of the protocol:
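STAT3(G127-I722), 25 nM, was mixed with 2 nM 5-FAM-GpYLPQTV-NH2 probe in HEPES pH 7.4 buffer with 1% DMSO and serially diluted compound. FP (mP) was read after 45 min at room temperature. IC50 came from nonlinear regression.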

Test [2] addresses T2, Recombinant STAT6 protein (STAT6(W123-T658)) (Homo sapiens, UniProt P42226).
T2 construct: Recombinant STAT6 protein (STAT6(W123-T658))
T2 sequence (P42226 123-658): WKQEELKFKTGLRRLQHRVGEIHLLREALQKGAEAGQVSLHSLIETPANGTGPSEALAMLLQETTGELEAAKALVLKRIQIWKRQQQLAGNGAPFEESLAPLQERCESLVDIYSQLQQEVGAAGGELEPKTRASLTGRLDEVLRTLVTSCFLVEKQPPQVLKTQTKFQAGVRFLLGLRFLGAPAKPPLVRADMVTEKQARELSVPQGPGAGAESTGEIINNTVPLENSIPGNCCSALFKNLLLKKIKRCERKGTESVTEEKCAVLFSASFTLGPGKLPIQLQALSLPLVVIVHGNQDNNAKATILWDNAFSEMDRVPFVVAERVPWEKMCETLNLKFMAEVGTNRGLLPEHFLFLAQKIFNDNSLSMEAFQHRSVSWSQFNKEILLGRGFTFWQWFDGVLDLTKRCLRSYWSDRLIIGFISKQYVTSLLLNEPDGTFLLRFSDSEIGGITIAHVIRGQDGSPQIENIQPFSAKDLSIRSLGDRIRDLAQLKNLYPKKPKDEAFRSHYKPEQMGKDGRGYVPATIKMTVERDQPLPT
The test can be described thus: STAT6 Fluorescence Polarization (FP) Assay. It counts as binding. The following applies: STAT6(W123-T658) 250 nM, probe 5-FAM-ApYKPFQDLI-NH2 2 nM, 45-minute incubation. A digest of the protocol: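 Displacement of a fluorescent phosphotyrosine peptide (5-FAM-ApYKPFQDLI-NH2, 2 nM) from STAT6(W123-T658) (250 nM), 1% DMSO, pH 7.4 HEPES buffer. After 45 min at room temperature, polarization (mP) was plotted versus log compound concentration and fitted by nonlinear regression to give IC50.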
On the technique in general: Fluorescence polarisation rises when a labelled molecule tumbles more slowly, as on binding a larger partner.

Each structure is given as a SMILES string. A value given as a limit tells only on which side of the number the result lay.

T1 sequence (P40763 127-722): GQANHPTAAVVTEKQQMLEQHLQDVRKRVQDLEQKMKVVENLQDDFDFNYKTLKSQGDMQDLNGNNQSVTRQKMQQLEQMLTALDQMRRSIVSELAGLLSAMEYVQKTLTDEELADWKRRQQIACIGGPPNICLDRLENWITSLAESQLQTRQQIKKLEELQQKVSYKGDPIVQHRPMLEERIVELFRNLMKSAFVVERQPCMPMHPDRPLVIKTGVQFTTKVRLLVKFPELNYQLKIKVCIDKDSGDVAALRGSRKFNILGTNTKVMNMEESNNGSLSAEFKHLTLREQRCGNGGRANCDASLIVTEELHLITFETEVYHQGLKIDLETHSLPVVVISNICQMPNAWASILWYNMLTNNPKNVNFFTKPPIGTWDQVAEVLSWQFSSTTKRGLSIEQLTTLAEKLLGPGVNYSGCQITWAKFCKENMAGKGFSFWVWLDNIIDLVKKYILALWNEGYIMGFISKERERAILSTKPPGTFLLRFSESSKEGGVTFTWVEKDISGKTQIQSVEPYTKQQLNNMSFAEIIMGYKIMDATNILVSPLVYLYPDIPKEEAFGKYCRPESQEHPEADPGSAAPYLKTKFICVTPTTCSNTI

For orientation: IC50 means the concentration at which inhibition is half-maximal. Regarding `O=C(N[C@H]1CN(C(=O)NCc2ccccc2)CC[C@H]2CC[C@@H](C(=O)Nc3ccc(-c4ccccc4)cc3)N2C1=O)c1cc2cc(C(F)(F)P(=O)(O)O)ccc2s1` [Compound 251, ((2-(((5S,8S,10aR)-8-([1,1′-biphenyl]-4-ylcarbamoyl)-3-(benzylcarbamoyl)-6-oxodecahydropyrrolo[1,2-a][1,5]diazocin-5-yl)carbamoyl)benzo[b]thiophen-5-yl)difluoromethyl)phosphonic acid], the IC50 in test [1] was 100 to 1000 nM; in test [2] it was 300 to 3000 nM.

In the case of `O=C(N[C@H]1CN(C(=O)OCc2ccccc2)CC[C@H]2CC[C@@H](C(=O)Nc3ccc(-c4ccccc4)cc3)N2C1=O)c1cc2cc(C(F)(F)P(=O)(O)O)ccc2s1` [Compound 252, ((2-(((5S,8S,10aR)-8-([1,1′-biphenyl]-4-ylcarbamoyl)-3-((benzyloxy)carbonyl)-6-oxodecahydropyrrolo[1,2-a][1,5]diazocin-5-yl)carbamoyl)benzo[b]thiophen-5-yl)difluoromethyl)phosphonic acid], the IC50 in test [1] was 1000 to 10000 nM; in test [2] it was 300 to 3000 nM.

`CN(C(=O)[C@@H]1CC[C@@H]2CCN(C(=O)CCc3ccccc3)C[C@H](NC(=O)c3cc4cc(C(F)(F)P(=O)(O)O)ccc4[nH]3)C(=O)N21)c1ccccc1` [Compound 253, (difluoro(2-(((5S,8S,10aR)-8-(methyl(phenyl)carbamoyl)-6-oxo-3-(3-phenylpropanoyl)decahydropyrrolo[1,2-a][1,5]diazocin-5-yl)carbamoyl)-1H-indol-5-yl)methyl)phosphonic acid]: the IC50 in test [1] is 1000 to 10000 nM; in test [2], not above 300 nM.

`C[C@@H](C(=O)N1CC[C@H]2CC[C@@H](C(=O)Nc3ccc(-c4ccccc4)cc3)N2C(=O)[C@@H](NC(=O)c2cc3cc(C(F)(F)P(=O)(O)O)ccc3[nH]2)C1)c1ccccc1` [Compound 254, ((2-(((5S,8S,10aR)-8-([1,1′-biphenyl]-4-ylcarbamoyl)-6-oxo-3-((R)-2-phenylpropanoyl)decahydropyrrolo[1,2-a][1,5]diazocin-5-yl)carbamoyl)-1H-indol-5-yl)difluoromethyl)phosphonic acid]: the IC50 in test [1] was in the range of 1000 to 10000 nM; in test [2], 300 to 3000 nM.

Consider `C[C@H](C(=O)N1CC[C@H]2CC[C@@H](C(=O)Nc3ccc(-c4ccccc4)cc3)N2C(=O)[C@@H](NC(=O)c2cc3cc(C(F)(F)P(=O)(O)O)ccc3[nH]2)C1)c1ccccc1` [Compound 255, ((2-(((5S,8S,10aR)-8-([1,1′-biphenyl]-4-ylcarbamoyl)-6-oxo-3-((S)-2-phenylpropanoyl)decahydropyrrolo[1,2-a][1,5]diazocin-5-yl)carbamoyl)-1H-indol-5-yl)difluoromethyl)phosphonic acid], for which the IC50 in test [1] lay in the range of 100 to 1000 nM; in test [2] it was 300 to 3000 nM.

For the compound `O=C(N[C@H]1CNCC[C@H]2CC[C@@H](C(=O)N3CC(C(=O)N4CCOCC4)C3)N2C1=O)c1cc2cc(C(F)(F)P(=O)(O)O)ccc2s1` [Compound 256, (difluoro(2-(((5S,8S,10aR)-8-(3-(morpholine-4-carbonyl)azetidine-1-carbonyl)-6-oxodecahydropyrrolo[1,2-a][1,5]diazocin-5-yl)carbamoyl)benzo[b]thiophen-5-yl)methyl)phosphonic acid], the IC50 in test [1] lay within 100 to 1000 nM; in test [2], 3000 to 30000 nM.

For the compound `CC(C)CN1CC[C@H]2CC[C@@H](C(=O)N3CC(C(=O)N4CCOCC4)C3)N2C(=O)[C@@H](NC(=O)c2cc3cc(C(F)(F)P(=O)(O)O)ccc3s2)C1` [Compound 257, (difluoro(2-(((5S,8S,10aR)-3-isobutyl-8-(3-(morpholine-4-carbonyl)azetidine-1-carbonyl)-6-oxodecahydropyrrolo[1,2-a][1,5]diazocin-5-yl)carbamoyl)benzo[b]thiophen-5-yl)methyl)phosphonic acid], the IC50 in test [1] lay in the range of 100 to 1000 nM; in test [2], 3000 to 30000 nM.

Regarding `C[C@@H](Cc1ccccc1)C(=O)N1CC[C@H]2CC[C@@H](C(=O)N3CCCC3)N2C(=O)[C@@H](NC(=O)c2cc3cc(C(F)(F)P(=O)(O)O)ccc3s2)C1` [Compound 258, (difluoro(2-(((5S,8S,10aR)-3-((S)-2-methyl-3-phenylpropanoyl)-6-oxo-8-(pyrrolidine-1-carbonyl)decahydropyrrolo[1,2-a][1,5]diazocin-5-yl)carbamoyl)benzo[b]thiophen-5-yl)methyl)phosphonic acid], the IC50 in test [1] was in the range of 1000 to 10000 nM; in test [2], 300 to 3000 nM.

Consider `C[C@H](Cc1ccccc1)C(=O)N1CC[C@H]2CC[C@@H](C(=O)N3CCCC3)N2C(=O)[C@@H](NC(=O)c2cc3cc(C(F)(F)P(=O)(O)O)ccc3s2)C1` [Compound 259, (difluoro(2-(((5S,8S,10aR)-3-((R)-2-methyl-3-phenylpropanoyl)-6-oxo-8-(pyrrolidine-1-carbonyl)decahydropyrrolo[1,2-a][1,5]diazocin-5-yl)carbamoyl)benzo[b]thiophen-5-yl)methyl)phosphonic acid], for which the IC50 is 100 to 1000 nM in test [1] and 300 to 3000 nM in test [2].

`C[C@H](CC(=O)N1CC[C@H]2CC[C@@H](C(=O)N3CCCC3)N2C(=O)[C@@H](NC(=O)c2cc3cc(C(F)(F)P(=O)(O)O)ccc3s2)C1)c1ccccc1` [Compound 260, (difluoro(2-(((5S,8S,10aR)-6-oxo-3-((R)-3-phenylbutanoyl)-8-(pyrrolidine-1-carbonyl)decahydropyrrolo[1,2-a][1,5]diazocin-5-yl)carbamoyl)benzo[b]thiophen-5-yl)methyl)phosphonic acid]: the results for the IC50 in test [1] and in test [2] were 100 to 1000 nM and 300 to 3000 nM, respectively.

On to `C[C@@H](CC(=O)N1CC[C@H]2CC[C@@H](C(=O)N3CCCC3)N2C(=O)[C@@H](NC(=O)c2cc3cc(C(F)(F)P(=O)(O)O)ccc3s2)C1)c1ccccc1` [Compound 261, (difluoro(2-(((5S,8S,10aR)-6-oxo-3-((S)-3-phenylbutanoyl)-8-(pyrrolidine-1-carbonyl)decahydropyrrolo[1,2-a][1,5]diazocin-5-yl)carbamoyl)benzo[b]thiophen-5-yl)methyl)phosphonic acid], for which the IC50 in test [1] is 100 to 1000 nM; in test [2], 300 to 3000 nM.

For `COC(=O)N1CC[C@H]2CC[C@@H](C(=O)N3CCCC3)N2C(=O)[C@@H](NC(=O)c2cc3cc(C(F)(F)P(=O)(O)O)ccc3s2)C1` [Compound 262, (difluoro(2-(((5S,8S,10aR)-3-(methoxycarbonyl)-6-oxo-8-(pyrrolidine-1-carbonyl)decahydropyrrolo[1,2-a][1,5]diazocin-5-yl)carbamoyl)benzo[b]thiophen-5-yl)methyl)phosphonic acid], the IC50 lay in the range of 1000 to 10000 nM in test [1] and 300 to 3000 nM in test [2].

With `O=C(N[C@H]1CN(CC(F)F)CC[C@H]2CC[C@@H](C(=O)N3CC(C(=O)N4CCOCC4)C3)N2C1=O)c1cc2cc(C(F)(F)P(=O)(O)O)ccc2s1` [Compound 263, ((2-(((5S,8S,10aR)-3-(2,2-difluoroethyl)-8-(3-(morpholine-4-carbonyl)azetidine-1-carbonyl)-6-oxodecahydropyrrolo[1,2-a][1,5]diazocin-5-yl)carbamoyl)benzo[b]thiophen-5-yl)difluoromethyl)phosphonic acid], the IC50 in test [1] is not above 100 nM; in test [2] it was 3000 to 30000 nM.

For `CN(CC(C)(C)C#N)C(=O)[C@@H]1CC[C@@H]2CCN(CC(F)F)C[C@H](NC(=O)c3cc4cc(C(F)(F)P(=O)(O)O)ccc4s3)C(=O)N21` [Compound 264, ((2-(((5S,8S,10aR)-8-((2-cyano-2-methylpropyl)(methyl)carbamoyl)-3-(2,2-difluoroethyl)-6-oxodecahydropyrrolo[1,2-a][1,5]diazocin-5-yl)carbamoyl)benzo[b]thiophen-5-yl)difluoromethyl)phosphonic acid], the IC50 in test [1] fell in the range of 1000 to 10000 nM; in test [2], 300 to 3000 nM.

Regarding `O=C(N[C@H]1CN(C(=O)Cc2ccccc2)CC[C@H]2CC[C@@H](C(=O)Nc3ccccc3-c3ccccc3)N2C1=O)c1cc2cc(C(F)(F)P(=O)(O)O)ccc2[nH]1` [Compound 265, ((2-(((5S,8S,10aR)-8-([1,1′-biphenyl]-2-ylcarbamoyl)-6-oxo-3-(2-phenylacetyl)decahydropyrrolo[1,2-a][1,5]diazocin-5-yl)carbamoyl)-1H-indol-5-yl)difluoromethyl)phosphonic acid], the IC50 in test [1] was 1000 to 10000 nM; in test [2], 300 to 3000 nM.

As to `N#Cc1ccccc1-c1ccc(NC(=O)[C@@H]2CC[C@@H]3CCN(C(=O)Cc4ccccc4)C[C@H](NC(=O)c4cc5cc(C(F)(F)P(=O)(O)O)ccc5[nH]4)C(=O)N32)cc1` [Compound 266, ((2-(((5S,8S,10aR)-8-((2′-cyano-[1,1′-biphenyl]-4-yl)carbamoyl)-6-oxo-3-(2-phenylacetyl)decahydropyrrolo[1,2-a][1,5]diazocin-5-yl)carbamoyl)-1H-indol-5-yl)difluoromethyl)phosphonic acid], the IC50 is 100 to 1000 nM in test [1] and not above 300 nM in test [2].

(Values after US20250179103A1, “6-OXODECAHYDROPYRROLO[1,2-A][1,5]DIAZOCINE AND 6-OXODECAHYDRO-4H-PYRROLO[2,1-D][1,5]THIAZOCINE DERIVATIVES AS STAT3 AND STAT6 MODULATORS FOR THE TREATMENT OF CANCER AND INFLAMMATORY CONDITIONS” (Recludix Pharma, Inc., priority 2022, published 2025).)
